Reference: patent US11951108B2, “Combination therapy for treating cancer” (Epizyme, Inc., priority 2016, dated 2024)
Like-named read-outs stand apart in the source and are kept apart here. Each block holds one molecule with its values, some of them ahead of it.

How the values were obtained:
RMUGS* = experiment: In vitro combination study, ovarian cancer cell line RMUGS; conditions: 7+3 model
A2780 = experiment: In vitro combination study, ovarian cancer cell line A2780
COV644* = experiment: In vitro combination study, ovarian cancer cell line COV644; conditions: COV644*; 7+3 model
KURAMOCHI = experiment: In vitro combination study, ovarian cancer cell line KURAMOCHI; conditions: KURAMOCHI; 4+3 model
BT549 = experiment: In vitro combination study, breast cancer cell line BT549; conditions: ER/PR −/−, HER2 −, 7 day pre-treatment + 6 day co-treatment
HCC1419 = experiment: In vitro combination study, breast cancer cell line HCC1419; conditions: ER/PR −/−, HER2 +, 7 day pre-treatment + 6 day co-treatment
SUM159PT = experiment: In vitro combination study, breast cancer cell line SUM159PT; conditions: ER/PR −/−, HER2 −, 7 day pre-treatment + 6 day co-treatment
MDA-MB-175VII = experiment: In vitro combination study, breast cancer cell line MDA-MB-175VII; conditions: ER/PR +/+, HER2 +, 7 day pre-treatment + 6 day co-treatment
CAOV-3 = experiment: In vitro combination study, ovarian cancer cell line CAOV-3; format: cell-based; conditions: 4+3 model
OVMANA = experiment: In vitro combination study, ovarian cancer cell line OVMANA; conditions: OVMANA; 4+3 model
SNU840 = experiment: In vitro combination study, ovarian cancer cell line SNU840; conditions: SNU840; 4+3 model
CAMA-1 = experiment: In vitro combination study, breast cancer cell line CAMA-1; format: cell-based; conditions: ER/PR +/−, HER2 +, 7 day pre-treatment + 6 day co-treatment
BT474 = experiment: In vitro combination study, breast cancer cell line BT474; conditions: ER/PR +/+, HER2 +, 7 day pre-treatment + 6 day co-treatment
DU4475 = experiment: In vitro combination study, breast cancer cell line DU4475; conditions: ER/PR −/−, HER2 −, 7 day pre-treatment + 6 day co-treatment
TOV21G = experiment: In vitro combination study, ovarian cancer cell line TOV21G; format: cell-based; conditions: 4+3 model
OVISE = experiment: In vitro combination study, ovarian cancer cell line OVISE; conditions: OVISE; 4+3 model
OV-90 = experiment: In vitro combination study, ovarian cancer cell line OV-90; conditions: OV-90; 4+3 model
SKOV3 = experiment: In vitro combination study, ovarian cancer cell line SKOV3; conditions: 4+3 model
COV362 = experiment: In vitro combination study, ovarian cancer cell line COV362; conditions: COV362; 4+3 model
OVSAHO = experiment: In vitro combination study, ovarian cancer cell line OVSAHO; conditions: 4+3 model
JH)S-4 = experiment: In vitro combination study, ovarian cancer cell line JH)S-4; conditions: 4+3 model
TOV112D = experiment: In vitro combination study, ovarian cancer cell line TOV112D; conditions: 4+3 model
ES-2 = experiment: In vitro combination study, ovarian cancer cell line ES-2; conditions: 4+3 model
SUM52PE = experiment: In vitro combination study, breast cancer cell line SUM52PE; conditions: ER/PR −/−, HER2 −, 7 day pre-treatment + 6 day co-treatment

Synergy or antagonism of second agent with tazemetostat (IC50 shift of second agent) (CAMA-1): C (Synergy > 2× IC50 shift)
Synergy or antagonism of second agent with tazemetostat (IC50 shift of second agent) (BT474): B (Synergy > 4× IC50 shift)
Synergy or antagonism of second agent with tazemetostat (IC50 shift of second agent) (DU4475): A (Antagonism)
Molecule: Cc1cc(Nc2ccc(NC(=O)c3ccc(Nc4ccnc5ccccc45)cc3)cc2)nc(N)n1 [SGI1027]

Synergy or antagonism of second agent with tazemetostat (IC50 shift of second agent) (A2780; A2780, 4+3 model): C (Synergy > 2× IC50 shift)
Synergy or antagonism of second agent with tazemetostat (IC50 shift of second agent) (TOV112D): C (Synergy > 2× IC50 shift)
Molecule: CC1(C)CCC(CN2CCN(c3ccc(C(=O)NS(=O)(=O)c4ccc(NCC5CCOCC5)c([N+](=O)[O-])c4)c(Oc4cnc5[nH]ccc5c4)c3)CC2)=C(c2ccc(Cl)cc2)C1 [ABT199]

Continued, molecule first:

Molecule: COc1cc2c(Oc3ccc4[nH]c(C)cc4c3F)ncnc2cc1OCCCN1CCCC1 [AZD2171]
Synergy or antagonism of second agent with tazemetostat (IC50 shift of second agent) (COV504; COV504, 4+3 model): B (Synergy > 4× IC50 shift)
Synergy or antagonism of second agent with tazemetostat (IC50 shift of second agent) (RMUGS*): C (Synergy > 2× IC50 shift)
Synergy or antagonism of second agent with tazemetostat (IC50 shift of second agent) (A2780; A2780, 4+3 model): C (Synergy > 2× IC50 shift)
Synergy or antagonism of second agent with tazemetostat (IC50 shift of second agent) (COV644*): C (Synergy > 2× IC50 shift)
Synergy or antagonism of second agent with tazemetostat (IC50 shift of second agent) (KURAMOCHI): C (Synergy > 2× IC50 shift)

Molecule: CO[C@H]1C[C@@H]2CC[C@@H](C)[C@@](O)(O2)C(=O)C(=O)N2CCCC[C@H]2C(=O)O[C@H]([C@H](C)C[C@@H]2CC[C@@H](OCCO)[C@H](OC)C2)CC(=O)[C@H](C)/C=C(\C)[C@@H](O)[C@@H](OC)C(=O)[C@H](C)C[C@H](C)/C=C/C=C/C=C/1C [Everolimus]
Synergy or antagonism of second agent with tazemetostat (IC50 shift of second agent) (BT549): A (Antagonism)
Synergy or antagonism of second agent with tazemetostat (IC50 shift of second agent) (HCC1419): C (Synergy > 2× IC50 shift)
Synergy or antagonism of second agent with tazemetostat (IC50 shift of second agent) (SUM159PT): C (Synergy > 2× IC50 shift)
Synergy or antagonism of second agent with tazemetostat (IC50 shift of second agent) (MDA-MB-175VII): C (Synergy > 2× IC50 shift)

Molecule: O=C(c1cc(Cc2n[nH]c(=O)c3ccccc23)ccc1F)N1CCN(C(=O)C2CC2)CC1 [Olaparib]
Synergy or antagonism of second agent with tazemetostat (IC50 shift of second agent) (A2780; A2780, 4+3 model): B (Synergy > 4× IC50 shift)
Synergy or antagonism of second agent with tazemetostat (IC50 shift of second agent) (SUM159PT): C (Synergy > 2× IC50 shift)

Molecule: CS(=O)(=O)N1CCN(Cc2cc3nc(-c4cccc5[nH]ncc45)nc(N4CCOCC4)c3s2)CC1 [Pictilisib]
Synergy or antagonism of second agent with tazemetostat (IC50 shift of second agent) (CAOV-3): C (Synergy > 2× IC50 shift)
Synergy or antagonism of second agent with tazemetostat (IC50 shift of second agent) (A2780; A2780, 4+3 model): C (Synergy > 2× IC50 shift)
Synergy or antagonism of second agent with tazemetostat (IC50 shift of second agent) (OVMANA): C (Synergy > 2× IC50 shift)
Synergy or antagonism of second agent with tazemetostat (IC50 shift of second agent) (COV644*): C (Synergy > 2× IC50 shift)
Synergy or antagonism of second agent with tazemetostat (IC50 shift of second agent) (SNU840): C (Synergy > 2× IC50 shift)

Molecule: Cc1[nH]c2ccccc2c1CCNCc1ccc(/C=C/C(=O)NO)cc1 [Panobinostat]
Synergy or antagonism of second agent with tazemetostat (IC50 shift of second agent) (TOV21G): C (Synergy > 2× IC50 shift)
Synergy or antagonism of second agent with tazemetostat (IC50 shift of second agent) (CAOV-3): C (Synergy > 2× IC50 shift)
Synergy or antagonism of second agent with tazemetostat (IC50 shift of second agent) (COV504; COV504, 4+3 model): B (Synergy > 4× IC50 shift)
Synergy or antagonism of second agent with tazemetostat (IC50 shift of second agent) (OVISE): C (Synergy > 2× IC50 shift)
Synergy or antagonism of second agent with tazemetostat (IC50 shift of second agent) (OV-90): C (Synergy > 2× IC50 shift)
Synergy or antagonism of second agent with tazemetostat (IC50 shift of second agent) (SKOV3): B (Synergy > 4× IC50 shift)
Synergy or antagonism of second agent with tazemetostat (IC50 shift of second agent) (A2780; A2780, 4+3 model): B (Synergy > 4× IC50 shift)
Synergy or antagonism of second agent with tazemetostat (IC50 shift of second agent) (OVMANA): C (Synergy > 2× IC50 shift)
Synergy or antagonism of second agent with tazemetostat (IC50 shift of second agent) (COV362): C (Synergy > 2× IC50 shift)
Synergy or antagonism of second agent with tazemetostat (IC50 shift of second agent) (OVSAHO): C (Synergy > 2× IC50 shift)
Synergy or antagonism of second agent with tazemetostat (IC50 shift of second agent) (JH)S-4): C (Synergy > 2× IC50 shift)
Synergy or antagonism of second agent with tazemetostat (IC50 shift of second agent) (COV644*): C (Synergy > 2× IC50 shift)
Synergy or antagonism of second agent with tazemetostat (IC50 shift of second agent) (SNU840): C (Synergy > 2× IC50 shift)
Synergy or antagonism of second agent with tazemetostat (IC50 shift of second agent) (TOV112D): C (Synergy > 2× IC50 shift)
Synergy or antagonism of second agent with tazemetostat (IC50 shift of second agent) (KURAMOCHI): C (Synergy > 2× IC50 shift)

Molecule: Cc1nc(NC(=O)N2CCC[C@H]2C(N)=O)sc1-c1ccnc(C(C)(C)C(F)(F)F)c1 [BYL719]
Synergy or antagonism of second agent with tazemetostat (IC50 shift of second agent) (CAOV-3): C (Synergy > 2× IC50 shift)
Synergy or antagonism of second agent with tazemetostat (IC50 shift of second agent) (COV504; COV504, 4+3 model): B (Synergy > 4× IC50 shift)
Synergy or antagonism of second agent with tazemetostat (IC50 shift of second agent) (OVISE): C (Synergy > 2× IC50 shift)
Synergy or antagonism of second agent with tazemetostat (IC50 shift of second agent) (SKOV3): C (Synergy > 2× IC50 shift)
Synergy or antagonism of second agent with tazemetostat (IC50 shift of second agent) (A2780; A2780, 4+3 model): B (Synergy > 4× IC50 shift)
Synergy or antagonism of second agent with tazemetostat (IC50 shift of second agent) (COV644*): C (Synergy > 2× IC50 shift)
Synergy or antagonism of second agent with tazemetostat (IC50 shift of second agent) (SNU840): B (Synergy > 4× IC50 shift)
Synergy or antagonism of second agent with tazemetostat (IC50 shift of second agent) (TOV112D): C (Synergy > 2× IC50 shift)

Molecule: CCc1cnn2c(NCc3ccc[n+]([O-])c3)cc(N3CCCC[C@H]3CCO)nc12 [Dinaciclib]
Synergy or antagonism of second agent with tazemetostat (IC50 shift of second agent) (CAMA-1): A (Antagonism)

Molecule: CCCS(=O)(=O)Nc1ccc(F)c(C(=O)c2c[nH]c3ncc(-c4ccc(Cl)cc4)cc23)c1F [Vemurafenib]
Synergy or antagonism of second agent with tazemetostat (IC50 shift of second agent) (ES-2): C (Synergy > 2× IC50 shift)

Molecule: AZD5363
Synergy or antagonism of second agent with tazemetostat (IC50 shift of second agent) (A2780): B (key: B: Synergy > 4× IC50 shift; Synergy > 2× IC50 shift; No Effect; Antagonism; X: Not Tested)

Molecule: Nc1ccn([C@@H]2O[C@H](CO)[C@@H](O)C2(F)F)c(=O)n1 [Gemcitabine]
Synergy or antagonism of second agent with tazemetostat (IC50 shift of second agent) (COV504; COV504, 4+3 model): C (Synergy > 2× IC50 shift)
Synergy or antagonism of second agent with tazemetostat (IC50 shift of second agent) (RMUGS*): B (Synergy > 4× IC50 shift)
Synergy or antagonism of second agent with tazemetostat (IC50 shift of second agent) (SKOV3): C (Synergy > 2× IC50 shift)
Synergy or antagonism of second agent with tazemetostat (IC50 shift of second agent) (A2780; A2780, 4+3 model): B (Synergy > 4× IC50 shift)
Synergy or antagonism of second agent with tazemetostat (IC50 shift of second agent) (HCC1419): C (Synergy > 2× IC50 shift)

Molecule: Cc1ccc(NC(=O)c2ccc(CN3CCN(C)CC3)cc2)cc1Nc1nccc(-c2cccnc2)n1 [Imatinib]
Synergy or antagonism of second agent with tazemetostat (IC50 shift of second agent) (ES-2): A (Antagonism)

Molecule: N.N.O=C([O-])C1(C(=O)[O-])CCC1.[Pt+2] [Carboplatin]
Synergy or antagonism of second agent with tazemetostat (IC50 shift of second agent) (A2780; A2780, 4+3 model): B (Synergy > 4× IC50 shift)

Molecule: NC(=O)c1ccc(I)c([N+](=O)[O-])c1 [Iniparib (BSI 201), Iniparib]
Synergy or antagonism of second agent with tazemetostat (IC50 shift of second agent) (CAMA-1): C (Synergy > 2× IC50 shift)
Synergy or antagonism of second agent with tazemetostat (IC50 shift of second agent) (SUM52PE): C (Synergy > 2× IC50 shift)
Synergy or antagonism of second agent with tazemetostat (IC50 shift of second agent) (HCC1419): C (Synergy > 2× IC50 shift)

Molecule: C=CCn1c(=O)c2cnc(Nc3ccc(N4CCN(C)CC4)cc3)nc2n1-c1cccc(C(C)(C)O)n1 [MK1775]
Synergy or antagonism of second agent with tazemetostat (IC50 shift of second agent) (CAOV-3): C (Synergy > 2× IC50 shift)
Synergy or antagonism of second agent with tazemetostat (IC50 shift of second agent) (COV504; COV504, 4+3 model): C (Synergy > 2× IC50 shift)
Synergy or antagonism of second agent with tazemetostat (IC50 shift of second agent) (RMUGS*): B (Synergy > 4× IC50 shift)
Synergy or antagonism of second agent with tazemetostat (IC50 shift of second agent) (SKOV3): C (Synergy > 2× IC50 shift)
Synergy or antagonism of second agent with tazemetostat (IC50 shift of second agent) (A2780; A2780, 4+3 model): B (Synergy > 4× IC50 shift)
Synergy or antagonism of second agent with tazemetostat (IC50 shift of second agent) (JH)S-4): C (Synergy > 2× IC50 shift)
Synergy or antagonism of second agent with tazemetostat (IC50 shift of second agent) (COV644*): B (Synergy > 4× IC50 shift)
Synergy or antagonism of second agent with tazemetostat (IC50 shift of second agent) (TOV112D): C (Synergy > 2× IC50 shift)
Synergy or antagonism of second agent with tazemetostat (IC50 shift of second agent) (KURAMOCHI): C (Synergy > 2× IC50 shift)

Molecule: C/C=C1\NC(=O)[C@H]2CSSCC/C=C/[C@H](CC(=O)N[C@H](C(C)C)C(=O)N2)OC(=O)[C@H](C(C)C)NC1=O [Romidepsin]
Synergy or antagonism of second agent with tazemetostat (IC50 shift of second agent) (COV504): C (key: B: Synergy > 4× IC50 shift; Synergy > 2× IC50 shift; No Effect; Antagonism; X: Not Tested)
Synergy or antagonism of second agent with tazemetostat (IC50 shift of second agent) (COV362): C (Synergy > 2× IC50 shift)
